≈ marks a conversion by molar mass, not a printed value.
How the values were obtained:
P. berghei ANKA strain = assay: treatment: 3x10 mg/kg p.o. divided dose vs 1x30 mg/kg po single dose in infected mice; format: in vivo, Plasmodium berghei; conditions: survival to day 30 post-infection = cure, cured/treated mice
Description: Moro NMRI male mice (Fü Albino specific pathogen free) weighing 18±2 g were infected intravenously (i.v.) with 2×10^7 P. berghei ANKA strain-infected erythrocytes from donor mice on day 0 of the experiment. From donor mice with circa 30% parasitemia, heparinized blood was taken and diluted in physiological saline to 10^8 parasitized erythrocytes per ml. An aliquot (0.2 ml) of this suspension was injected i.v. into experimental and control groups of mice. […] Throughout the experiments, mice were kept in groups of three or five animals in Makrolon type II cages in an air-conditioned animal room at 22 to 23° C.
They were administered per os (p.o.) in a total volume of 0.01 ml per gram of mouse. The activity of the compound was determined by a variety of methods outlined in subsequent sections. Survival time was also recorded, and survival to day 30 post-infection was considered to be a cure.
The first experiment conducted consisted of administration of a divided 3×10 mg/kg p.o. dose administered on days 1, 2, and 3 post-infection vs. a single 1×30 mg/kg po dose administered on day 1 post-infection. On day 4 post-infection, blood smears of all animals were prepared and stained with Giemsa. […] Compounds were administered orally in the SSV vehicle.

[1] = system: ANKA strain of Plasmodium berghei; assay: single dose ED50/ED90/ED99 determinations in infected mice; format: in vivo; conditions: single dose po in SSV, mice, percent reduction in parasitemia on day three post-infection
Description: In the single dose ED50/ED90/ED99 determinations, Moro SPF or NMRI mice (group of three) infected with the ANKA strain of Plasmodium berghei were treated on day one post-infection. […] The SSV consists of 0.5% w/v CMC, 0.5% v/v benzyl alcohol, 0.4% v/v Tween 80, and 0.9% w/v sodium chloride in water. Antimalarial activity was measured by percent reduction in parasitemia on day three post-infection. The ED50/ED90 values were calculated by nonlinear fitting.

[2] = system: Schistosoma mansoni adult schistosomes (49-day-old); assay: effect on adult schistosomes (49-day-old) in mice; format: in vivo; conditions: for % reduction of adult worms growth at day 49 after per os application of 400 mg/kg, TWR (%) / adult worms at day 49, per os 400 mg/kg, DEAD WORM (%): single 400 mg/kg per os
Description: Mice were infected with 100 Schistosoma mansoni cercariae […]. Each group was treated per os with OZ compounds at single doses of 200, 400, and 600 mg/kg. […] All groups were killed 4 weeks after treatment and the liver and intestine were removed and separated. The liver and intestine were compressed and alive male and female worms could be seen and counted.

[3] = system: P. falciparum K1 strain (Thailand resistant to chloroquine); assay: semiautomated microdilution assay, [3H]-hypoxanthine incorporation, K1 strain; format: cell-based, Plasmodium falciparum; conditions: K1 strain, 72 h incubation
Summary of the method: (§1)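 Asynchronous stock cultures → intraerythrocytic forms; semiautomated microdilution; IC50 by logit regression.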

[4] = system: Schistosoma mansoni 21-day-old schistosomules; assay: effect on 21-day-old schistosomules in mice; format: in vivo; conditions: single 200 mg/kg per os, female mice
Description: All groups were killed 4 weeks after treatment and the liver and intestine were removed and separated. The liver and intestine were compressed and alive male and female worms could be seen and counted. The effect of the compounds was evaluated by mean total and female worm burden.

[5] = system: ANKA strain of P. berghei; assay: single dose STI in vivo screen in infected mice; parameters: species or system Plasmodium berghei; conditions: for Activity (%) po / Activity (%) sc / Activity (%) SSVpo: percent reduction in parasitemia day 3 post-infection, mice; for Activity (%) po / Survival (days) po: single 10 mg/kg po in 3% ethanol and 7% Tween 80; for Activity (%) sc / Survival (days) sc: single 10 mg/kg sc in 3% ethanol and 7% Tween 80; for Activity (%) SSVpo: single po dose in standard suspending vehicle (SSV); for Survival (days) po / Survival (days) sc / Survival (days) SSVpo: untreated control 5.6 ± 0.3; for Survival (days) SSVpo: single po dose in SSV
Summary of the method: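 Groups of 3-5 Moro SPF or NMRI mice infected with the ANKA strain of P. berghei received a single dose of trioxolane on day one post-infection. The compound was given in 3% ethanol and 7% Tween 80 or in SSV (0.5% w/v CMC, 0.5% v/v benzyl alcohol, 0.4% v/v Tween 80, 0.9% w/v sodium chloride in water). Antimalarial activity was scored as percent reduction in parasitemia on day three and as survival time versus untreated controls. Survival to day 30 counted as cure.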

[6] = system: P. falciparum NF54 strain (sensitive to standard antimalarials); assay: semiautomated microdilution assay, [3H]-hypoxanthine incorporation, NF54 strain; format: cell-based, Plasmodium falciparum; conditions: NF54 strain, 72 h incubation
Summary of the method: as §1

| Compound | ED99 [1] | % reduction of adult worms growth at day 49 after per os application of 400 mg/kg, TWR (%) [2] | adult worms at day 49, per os 400 mg/kg, DEAD WORM (%) [2] | IC50 (ng/ml) K1 [3] | % reduction of schistosomule growth at day 21 after per os application of 200 mg/kg, FWR (%) [4] | % reduction of schistosomule growth at day 21 after per os application of 200 mg/kg, TWR (%) [4] | ED90 [1] | Activity (%) po [5] | Activity (%) sc [5] | Activity (%) SSVpo [5] | Survival (days) po [5] | Survival (days) sc [5] | Survival (days) SSVpo [5] | IC50 (ng/ml) NF54 [6] | ED50 [1] | further results |
| --- | --- | --- | --- | --- | --- | --- | --- | --- | --- | --- | --- | --- | --- | --- | --- | --- |
| CCN(CC)CCCC(C)Nc1ccnc2cc(Cl)ccc12 (stereo not drawn) [CQ, chloroquine, reference compound] | 5.9 mg/kg | – | – | – | – | – | – | – | – | – | – | – | – | – | – | Cures (P. berghei ANKA strain; 1 × 30 mg/kg): 0/5; Cures (P. berghei ANKA strain; 3 × 10 mg/kg): 0/5 |
| O=C(O)CC1CCC2(CC1)OOC1(O2)C2CC3CC(C2)CC1C3 (stereo not drawn) [OZ78] | 17 mg/kg | 0% | 17% | 24 ng/mL (≈ 0.0744 µM) | 87% | 82% | 9.1 mg/kg | 94% | 79% | 97% | 8.7 days | 6.7 days | 7.0 days | 42 ng/mL (≈ 0.13 µM) | – | % reduction of adult worms growth at day 49 after per os application of 200 mg/kg, TWR (%) ([2]; single 200 mg/kg per os): 24%; adult worms at day 49, per os 200 mg/kg, DEAD WORM (%) ([2]; single 200 mg/kg per os): 29%; % reduction of adult worms growth at day 49 after per os application of 600 mg/kg, TWR (%) ([2]; single 600 mg/kg per os): 0%; adult worms at day 49, per os 600 mg/kg, DEAD WORM (%) ([2]; single 600 mg/kg per os): 14% |
| c1ccc(C[C@H]2CC[C@]3(CC2)OOC2(O3)C3CC4CC(C3)CC2C4)cc1 (stereo partly drawn) [OZ156] | 4.7 mg/kg | 0% | 6% | 2.1/2.1 ng/ml | 72% | 75% | 2.6 mg/kg | 99.98% | 99.98% | 98.8% | 17.0 days | 19.7 days | 10.3 days | 2.1/2.1 ng/ml | 1.3 mg/kg | – |
| CC(C)(O)C[C@H]1CC[C@]2(CC1)OOC1(O2)C2CC3CC(C2)CC1C3 (stereo partly drawn) [OZ205] | 6.0 mg/kg | 0% | 12% | 1.5 ng/mL (≈ 0.00446 µM) | 83% | 84% | 3.3 mg/kg | 99.96% | 99.96% | 99.94% | 10.0 days | 9.7 days | 8.7 days | 2.0 ng/mL (≈ 0.00594 µM) | 1.6 mg/kg | – |
